Data from PubChem BioAssay AID330 (DTP/NCI, 2004).
Several values for one entry are separate records, joined by “and”; a condition that tells them apart may be missing. Equal entries are not always repeated. Toxic doses and inconclusive results are not listed. How the source made its calls: active means survival T/C of 150% or more; inactive means T/C below 125% in these data.

System: P388 leukemia ip, CD2F1 mice, survival T/C
Assay: NCI In Vivo Anticancer Drug Screen. Data for tumor model P388 Leukemia (intraperitoneal) in CD2F1 (CDF1) mice
Details: endpoint: median survival time, higher = longer survival
Procedure, shortened: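 Mice carrying the transplanted tumor received test compound or vehicle. Survival was recorded in each group, and the value is the treated-group measurement divided by that of the vehicle-treated control group.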

[1] = dose: 50.0 mg/kg/injection, schedule: Q01DX009 (ip), vehicle: saline with Tween-80
[2] = dose: 100.0 mg/kg/injection, schedule: Q01DX009 (ip), vehicle: saline with Tween-80
[3] = dose: 200.0 mg/kg/injection, schedule: Q01DX009 (ip), vehicle: saline with Tween-80
[4] = dose: 50.0 mg/kg/injection, schedule: Q01DX005 (ip), vehicle: saline with Tween-80
[5] = dose: 100.0 mg/kg/injection, schedule: Q01DX005 (ip), vehicle: saline with Tween-80
[6] = dose: 200.0 mg/kg/injection, schedule: Q01DX005 (ip), vehicle: saline with Tween-80

Measured: T/C

CC12CCC(=O)C=C1CCC1C2CCC2(C)C(OC(=O)C34C=CC(=O)C3C3C=CC4CC3)CCC12 (centres undefined)
inactive: dose: 25.0 mg/kg/injection, schedule: Q01DX005 (ip), vehicle: distilled water + Tween-80 95 % of control | dose: 50.0 mg/kg/injection, schedule: Q01DX005 (ip), vehicle: distilled water + Tween-80 92 % of control

CCCC(C(CC)CNC(=O)Nc1cccc2ccccc12)N(C)C(=O)Nc1cccc2ccccc12 (centres undefined)
inactive: [1] 93 % of control | [2] 92 % of control | [3] 94 % of control | dose: 400.0 mg/kg/injection, schedule: Q01DX009 (ip), vehicle: saline with Tween-80 99 % of control

Cn1c(=O)oc2cc(C(=O)CN3CCN(c4cccc(C(F)(F)F)c4)CC3)ccc21
inactive: dose: 60.0 mg/kg/injection, schedule: Q01DX005 (ip), vehicle: Klucel (hydroxypropylcellulose) (HPC) 92 % of control | dose: 120.0 mg/kg/injection, schedule: Q01DX005 (ip), vehicle: Klucel (hydroxypropylcellulose) (HPC) 93 % of control

CS(C)(=O)=Nc1ccc(I)cc1
inactive: dose: 50.0 mg/kg/injection, schedule: Q04DX002 (ip), vehicle: Klucel (hydroxypropylcellulose) (HPC) 105 % of control | dose: 100.0 mg/kg/injection, schedule: Q04DX002 (ip), vehicle: Klucel (hydroxypropylcellulose) (HPC) 102 % of control and 104 % of control and 105 % of control | dose: 100.0 mg/kg/injection, schedule: Q04DX003 (ip), vehicle: saline 98 % of control | dose: 200.0 mg/kg/injection, schedule: Q04DX002 (ip), vehicle: Klucel (hydroxypropylcellulose) (HPC) 101 % of control and 113 % of control and 119 % of control | dose: 200.0 mg/kg/injection, schedule: Q04DX003 (ip), vehicle: saline 100 % of control | dose: 400.0 mg/kg/injection, schedule: Q04DX002 (ip), vehicle: Klucel (hydroxypropylcellulose) (HPC) 101 % of control and 105 % of control and 120 % of control | dose: 400.0 mg/kg/injection, schedule: Q04DX003 (ip), vehicle: saline 94 % of control

CO[C@@H]1C2=CC=CC=C[C@H]2n2c(=O)n(C)c(=O)n21
inactive: dose: 50.0 mg/kg/injection, schedule: Q01DX005 (ip), vehicle: Klucel (hydroxypropylcellulose) (HPC) 100 % of control | dose: 75.0 mg/kg/injection, schedule: Q01DX005 (ip), vehicle: other 109 % of control | dose: 100.0 mg/kg/injection, schedule: Q01DX005 (ip), vehicle: Klucel (hydroxypropylcellulose) (HPC) 98 % of control | dose: 150.0 mg/kg/injection, schedule: Q01DX005 (ip), vehicle: other 115 % of control | dose: 200.0 mg/kg/injection, schedule: Q01DX005 (ip), vehicle: Klucel (hydroxypropylcellulose) (HPC) 102 % of control | dose: 300.0 mg/kg/injection, schedule: Q01DX005 (ip), vehicle: other 111 % of control

Clc1cc(Cl)c2c(c1)[nH]c1nc3ccccc3nc12
inactive: dose: 6.25 mg/kg/injection, schedule: Q01DX005 (ip), vehicle: saline with Tween-80 101 % of control | dose: 12.5 mg/kg/injection, schedule: Q01DX005 (ip), vehicle: saline with Tween-80 90 % of control | [4] 96 % of control | [5] 100 % of control | [6] 104 % of control

CCOC(=O)/C(=N/NS(=O)(=O)c1c(C)cc(C)cc1C)c1ccco1
inactive: [1] 113 % of control | [2] 106 % of control | [3] 104 % of control

CC(C)NCC(O)COc1ccccc1C1CC1 (centres undefined)
inactive: dose: 50.0 mg/kg/injection, schedule: Q01DX009 (ip), vehicle: saline 106 % of control | dose: 100.0 mg/kg/injection, schedule: Q01DX009 (ip), vehicle: saline 104 % of control

N#CC(NCCNC(C#N)c1ccccc1)c1ccccc1 (centres undefined)
inactive: dose: 60.0 mg/kg/injection, schedule: Q01DX005 (ip), vehicle: saline with Tween-80 96 % of control | dose: 120.0 mg/kg/injection, schedule: Q01DX005 (ip), vehicle: saline with Tween-80 90 % of control | dose: 240.0 mg/kg/injection, schedule: Q01DX005 (ip), vehicle: saline with Tween-80 88 % of control

O=C(NP(=O)(O)NC(Cc1ccccc1)C(=O)O)OCc1ccccc1 (centres undefined)
inactive: dose: 50.0 mg/kg/injection, schedule: Q01DX005 (ip), vehicle: saline 106 % of control | dose: 100.0 mg/kg/injection, schedule: Q01DX005 (ip), vehicle: saline 109 % of control | dose: 200.0 mg/kg/injection, schedule: Q01DX005 (ip), vehicle: saline 102 % of control

CCO/C=C/C=C1C(=O)N(C)C(=O)N(C)C1=O
inactive: dose: 25.0 mg/kg/injection, schedule: Q01DX009 (ip), vehicle: saline + Tween-80 + alcohol 100 % of control and 108 % of control | dose: 50.0 mg/kg/injection, schedule: Q01DX009 (ip), vehicle: saline + Tween-80 + alcohol 111 % of control and 118 % of control | dose: 100.0 mg/kg/injection, schedule: Q01DX009 (ip), vehicle: saline + Tween-80 + alcohol 108 % of control and 117 % of control | dose: 200.0 mg/kg/injection, schedule: Q01DX009 (ip), vehicle: saline + Tween-80 + alcohol 115 % of control and 119 % of control | dose: 400.0 mg/kg/injection, schedule: Q01DX009 (ip), vehicle: saline + Tween-80 + alcohol 103 % of control

COc1ccc2c(c1)CCC1=C2C=C[P+]1(C)C
inactive: [1] 94 % of control

Nc1ncnc2nc[nH]c12
inactive: dose: 16.0 mg/kg/injection, schedule: Q01DX009 (ip), vehicle: Klucel (hydroxypropylcellulose) (HPC) 100 % of control | dose: 32.0 mg/kg/injection, schedule: Q01DX009 (ip), vehicle: Klucel (hydroxypropylcellulose) (HPC) 103 % of control and 108 % of control and 109 % of control | dose: 32.0 mg/kg/injection, schedule: Q01DX009 (ip), vehicle: saline with Tween-80 106 % of control and 118 % of control | [1] 99 % of control | dose: 64.0 mg/kg/injection, schedule: Q01DX009 (ip), vehicle: Klucel (hydroxypropylcellulose) (HPC) 106 % of control | dose: 64.0 mg/kg/injection, schedule: Q01DX009 (ip), vehicle: saline with Tween-80 111 % of control and 97 % of control | [2] 114 % of control | dose: 128.0 mg/kg/injection, schedule: Q01DX009 (ip), vehicle: Klucel (hydroxypropylcellulose) (HPC) 110 % of control | dose: 128.0 mg/kg/injection, schedule: Q01DX009 (ip), vehicle: saline with Tween-80 100 % of control and 108 % of control | [3] 110 % of control | dose: 256.0 mg/kg/injection, schedule: Q01DX009 (ip), vehicle: Klucel (hydroxypropylcellulose) (HPC) 88 % of control | dose: 256.0 mg/kg/injection, schedule: Q01DX009 (ip), vehicle: saline with Tween-80 118 % of control

Cc1ccc(CNc2cc(C)ccn2)cc1
inactive: dose: 50.0 mg/kg/injection, schedule: Q01DX009 (ip), vehicle: other 109 % of control | dose: 100.0 mg/kg/injection, schedule: Q01DX009 (ip), vehicle: other 109 % of control

CN1N=C(N)c2cn(C3OC(COP(=O)(O)O)C(O)C3O)c3ncnc1c23 (centres undefined)
inactive: dose: 6.25 mg/kg/injection, schedule: Q01DX009 (ip), vehicle: water 124 % of control | dose: 20.0 mg/kg/injection, schedule: Q01DX005 (ip), vehicle: saline 122 % of control | dose: 38.0 mg/kg/injection, schedule: Q01DX005 (ip), vehicle: water 124 % of control

O=Nc1c2cc3ccccc3[nH]c-2c2ccccc12
inactive: [4] 101 % of control | [5] 93 % of control | [6] 97 % of control

COC1OCN(C2CCCCC2)CC1(C)C (centres undefined)
inactive: dose: 17.5 mg/kg/injection, schedule: Q01DX009 (ip), vehicle: saline with Tween-80 100 % of control | dose: 35.0 mg/kg/injection, schedule: Q01DX009 (ip), vehicle: saline with Tween-80 104 % of control | dose: 70.0 mg/kg/injection, schedule: Q01DX009 (ip), vehicle: saline with Tween-80 117 % of control

Cc1ncc(O)c(C(=O)O)c1C(=O)O
inactive: dose: 17.5 mg/kg/injection, schedule: Q01DX005 (ip), vehicle: Klucel (hydroxypropylcellulose) (HPC) 100 % of control | dose: 35.0 mg/kg/injection, schedule: Q01DX005 (ip), vehicle: Klucel (hydroxypropylcellulose) (HPC) 103 % of control | dose: 70.0 mg/kg/injection, schedule: Q01DX005 (ip), vehicle: Klucel (hydroxypropylcellulose) (HPC) 100 % of control
